In patent US20210084904A1, “SUCCINATE DEHYDROGENASE INHIBITORS AND SULFUR-CONTAINING COMPOUNDS MIXTURES AND METHODS OF USE THEREOF” (University of Georgia Research Foundation, Inc., priority 2019, published 2021):

Tested on: Cercosporidium personatum
Experiment: Greenhouse test: efficacy on peanut late leaf spot, foliar spray
Type: in vivo
Conditions: leaves sprayed, infected peanut plants
Method: The following greenhouse test was conducted Sep. 14, 2019. Peanut plants (Arachis hypogaea) were used in the test as the crop plant. The peanut plants were infected Cercosporidium personatum.
Leaves were sprayed with inpyfluxam, chlorothalonil, benzovindiflupyr, prothioconazole, and/or sulfur at the rates disclosed in Table 1. All data was analyzed for significance.

For `N#Cc1c(Cl)c(Cl)c(Cl)c(C#N)c1Cl` [Chlorothalonil, chlorothalonil], the “% Control” value (application rate 24.0 ounces/acre) was 27.5c %.

With `OC(Cc1ccccc1Cl)(Cn1nc[nH]c1=S)C1(Cl)CC1` (centres unmarked) [Prothioconazole, prothioconazole] the “% Control” value (application rate 7.0 ounces/acre) was 10.0d %.

For inpyrfluxam, the “% Control” value (application rate 2.0 ounces/acre) was 32.5b %, the “% Control” value (application rate 3.0 ounces/acre) was 31.3bc % and the “% Control” value (application rate 4.0 ounces/acre) was 30.0bc %.
